From patent publication US11072632B2, “Inhibitors of 17β-HSD1, 17β-HSD3 and 17β-HSD10” (UNIVERSITÉ LAVAL, priority 2011, dated 2021)
Where two headings read alike, the source gives them in different places.

Columns and labels:
17β-HSD1 = target: T1, 17β-HSD1 (Homo sapiens, UniProt P14061); assay: Inhibition of 17β-HSD1 in T-47D intact cells (E1 into E2); format: cell-based; details: for inhibition at 0.01 µM: read-out: Inhibition % (0.01 μM)
T1 construct: endogenous in cells; host or cells: T-47D
T1 sequence (P14061 1-328): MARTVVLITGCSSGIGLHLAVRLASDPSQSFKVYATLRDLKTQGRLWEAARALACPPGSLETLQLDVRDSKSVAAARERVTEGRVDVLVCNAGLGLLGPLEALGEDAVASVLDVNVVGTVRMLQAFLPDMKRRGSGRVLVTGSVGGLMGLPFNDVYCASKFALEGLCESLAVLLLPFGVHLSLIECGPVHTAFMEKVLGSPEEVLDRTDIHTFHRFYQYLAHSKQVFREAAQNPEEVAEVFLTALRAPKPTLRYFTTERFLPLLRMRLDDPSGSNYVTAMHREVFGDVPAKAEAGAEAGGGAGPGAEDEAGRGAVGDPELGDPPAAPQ
Protocol: T-47D cells were seeded in a 24-well plate (3000 cells/well) in medium supplemented with insulin (50 ng/mL) and 5% dextran-coated charcoal treated FBS rather than 10% FBS to remove remaining hormones. […] Each inhibitor was assessed in triplicate. After incubation, the culture medium was removed and labelled steroids (E1 and E2) extracted with 1 mL of diethyl ether. The organic phases were separated and evaporated to dryness using nitrogen. Residues were dissolved in dichloromethane and dropped on silica gel thin layer chromatography plates (EMD Chemicals Inc., Gibbstown, N.J., USA) and eluted with a toluene/acetone (4:1) solvent system. Substrate [^14C]-E1 and metabolite [^14C]-E2 were identified by comparison with reference steroids and quantified using a Storm 860 system (Molecular Dynamics, Sunnyvale, Calif., USA).
T-47D cells were seeded in a 24-well plate (3000 cells/well) in 990 μL of medium supplemented with insulin (50 ng/mL) and 5% dextran-coated charcoal-treated FBS, which was used rather than untreated 10% FBS, to remove the remaining steroid hormones. […] The final concentration of ethanol in the well was adjusted to 0.1%. Additionally, 5 μL of a solution of [^14C]-estrone (American Radiolabeled Chemicals, Inc., St. Louis, Mo., USA) was added to obtain a final concentration of 60 nM. […] After incubation, the culture medium was removed and labeled steroids (E1 and E2) were extracted with 1 mL of diethyl ether. The organic phases were evaporated to dryness with nitrogen. Residues were dissolved in dichloromethane and dropped on silica gel thin layer chromatography plates (EMD Chemicals Inc., Gibbstown, N.J., USA) and eluted with toluene/acetone (4:1) as solvent system. Substrate [^14C]-E1 and metabolite [^14C]-E2 were identified by comparison with reference steroids (E1 and E2) and quantified using the Storm 860 system (Molecular Dynamics, Sunnyvale, Calif., USA).

MCF-7 cells = assay: Estrogenic activity in MCF-7 cells; format: cell-based, human; details: 7 days, concentrations up to 5 μM
Protocol: MCF-7 cells were seeded with medium supplemented with insulin (50 ng/mL) and 5% dextran-coated charcoal treated FBS rather than 10% FBS to remove remaining hormones. Aliquots (100 μL) of the cell suspension were seeded in 96-well plates (3000 cells/well). […] Cells were grown either in the absence or presence of the compounds over a period of 7 days. Quantification of cell growth was determined by using the CellTiter 96®Aqueous Solution Cell Proliferation Assay (Promega, Nepean, ON, Canada) following the manufacturer's instructions. To determine the proliferative (estrogenic) activity, the cells were grown in the absence (control fixed as 100%) or presence of the tested compounds at the indicated concentrations.

CYP3A4 = target: T2, CYP3A4 (Homo sapiens, UniProt P08684); assay: Inhibition of CYP3A4 (P450 Inhibition Kit CYP3A4/DBF); format: in vitro ADME
T2 construct: purchased BD Biosciences
T2 sequence (P08684 whole entry): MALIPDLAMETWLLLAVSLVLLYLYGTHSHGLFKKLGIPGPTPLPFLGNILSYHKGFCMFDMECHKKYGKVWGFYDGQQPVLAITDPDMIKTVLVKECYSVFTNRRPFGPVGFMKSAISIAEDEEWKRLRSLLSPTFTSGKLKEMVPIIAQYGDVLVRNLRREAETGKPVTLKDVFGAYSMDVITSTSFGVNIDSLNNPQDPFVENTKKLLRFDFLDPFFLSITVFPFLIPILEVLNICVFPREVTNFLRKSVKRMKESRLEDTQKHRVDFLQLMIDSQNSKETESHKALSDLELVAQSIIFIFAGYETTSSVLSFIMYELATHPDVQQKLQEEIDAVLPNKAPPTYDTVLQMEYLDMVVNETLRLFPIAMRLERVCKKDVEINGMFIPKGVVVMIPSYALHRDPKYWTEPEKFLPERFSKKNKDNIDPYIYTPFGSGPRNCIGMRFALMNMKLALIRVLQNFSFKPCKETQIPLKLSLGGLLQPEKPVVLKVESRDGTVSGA

[1] = Plasma concentration of inhibitor after a single subcutaneous injection; details: rat, in vivo, sc
Protocol: Six week-old male Sprague-Dawley rats weighing approximately 220 g were obtained from Charles-River, Inc. (St-Constant, Qc., Canada). The animals were housed 3 per cage. A pharmacokinetic study was carried out following one subcutaneous (s.c.) injection of the inhibitor at one concentration (2.3 mg/kg of body weight in 0.5 mL of vehicle fluid). The inhibitor was first dissolved in ethanol (EtOH) and thereafter we added propylene glycol (PG) to obtain a final concentration of EtOH of 8%. During this experiment, the rats were housed individually and were fasted for 8 h before inhibitor injection but allowed free access to water. Blood samples for determination of inhibitor plasma concentration were collected at the jugular vein (0.4 mL by animal) at target intervals of 3, 7, 12 and 24 h post-dose for Compound V and 3 and 12 h for CC-156, from three rats per time point. After the collection at 7 h, a replacement fluid (0.9% sodium chloride injection USP) was injected in the rat. Blood samples were collected into Microvette potassium-EDTA (ethylenediamine tetraacetic acid)-coated tube (Sarstedt, Aktiegesellchaft & Co, Germany) and centrifuged at 3200 rpm for 10 minutes at 4° C. The plasma was collected and stored at −80° C. until analyzed by liquid chromatography/mass spectrometry/mass spectrometry (LC/MS/MS) analysis.
The concentration of the inhibitors (Compounds I and V) was determined by LC/MS/MS analysis using a procedure developed at CHUQ (CHUL)-Research Center (Québec, Qc, Canada). Briefly, for extraction from serum, 100 μL of serum sample is transferred to individual tubes and 600 μL of ammonium acetate (1 mM) is added. A methanolic solution (50 μL) containing a steroidal internal standard is then added to each tube. Samples are transferred on Strata-X SPE columns (Phenomenex, Torrance, Calif., USA), which have been conditioned with 2 mL of methanol and 2 mL of water. Each column is washed with 2 mL of methanol:water (10:90, v/v). The inhibitor is then eluted with 5 mL of methanol containing 5 mM ammonium acetate. Methanol is evaporated at 45° C. under inert atmosphere and the residue dissolved in 100 μL of methanol:water (85:15, v/v). For the steroid analysis, the HPLC system uses a 75×4.6-mm, 3 μm reversed-phase Luna Phenyl-Hexyl column (Phenomenex, Torrance, Calif., USA) at a flow rate of 0.8 mL/min. The inhibitor is detected using an API 3000 mass spectrometer, equipped with TurbolonSpray (Applied Biosystems, Canada). ESI in positive ion mode was used. The area under the curve (AUC) was calculated using the linear trapezoidal rule.

Row | SMILES | inhibition at 0.01 µM (17β-HSD1; T47D, [14C]-E1 (60 nM) into [14C]-E2, T-47D intact cells, 0.01 μM) [%] | inhibition at 0.1 µM (17β-HSD1; T47D, [14C]-E1 (60 nM) into [14C]-E2, T-47D intact cells, 0.1 μM, read-out: Inhibition % (0.1 μM)) [%] | estrogenic activity on MCF-7 cells (FIG. 1) (MCF-7 cells) | IC50 (CYP3A4; read-out: IC50 on CYP3A4) [µM] | time at which maximum plasma concentration (Cmax) was attained ([1]; 2.3 mg/kg) [h] | inhibition at 0.01 µM (17β-HSD1; T47D) [%] | inhibition at 0.1 µM (17β-HSD1; T47D, read-out: Inhibition % (0.1 μM)) [%] | inhibition at 0.1 µM (17β-HSD1; T47D, read-out: Inhibition (0.1 μM)) [%] | inhibition at 1 µM (17β-HSD1; T47D, read-out: Inhibition (1 μM)) [%] | IC50 (17β-HSD1; T-47D intact cells, [14C]-E1 60 nM) [µM] | IC50 (CYP3A4) [µM] | concentration at 7 h ([1]; male, Sprague-Dawley, s.c. 2.3 mg/kg, 7 h) [ng/mL] | concentration at 12 h ([1]; male, Sprague-Dawley, s.c. 2.3 mg/kg, 12 h) [ng/mL] | concentration at 24 h ([1]; male, Sprague-Dawley, s.c. 2.3 mg/kg, 24 h) [ng/mL] | AUC(0-t) ([1]; male, Sprague-Dawley, s.c. 2.3 mg/kg, read-out: AUC0-24 h) [ng·h/mL]
1 | C[C@]12CC[C@@H]3c4ccc(O)cc4CC[C@H]3[C@@H]1C[C@H](Cc1cccc(C(N)=O)c1)[C@@H]2O [Compound I, 16β-(m-carbamoylbenzyl)estradiol, reference compound] | 35 | 66 | strongly stimulated the estrogen sensitive MCF-7 cells | 1.52 ± 0.29 | 3 | – | – | – | – | – | – | – | – | – | –
2 | C[C@]12CC[C@@H]3c4ccc(CCBr)cc4CC[C@H]3[C@@H]1C[C@H](Cc1cccc(C(N)=O)c1)[C@@H]2O [Compound V, 3-{[(16β,17β)-3-(2-bromoethyl)-17-hydroxyestra-1(10),2,4-trien-16-yl]methyl}benzamide] | – | – | no estrogenicity | – | – | 23 | 49 | 56 | 89 | 0.068 | 4.06 ± 0.57 | 73.8 | 50.7 | 11.7 | 1150
